Results from article PMC6102311 (Scientific Reports, 2018).

Columns and labels:
[1] = system: Ralstonia solanacearum; conditions: extracted from Chinese agarwood; cited from earlier work
[2] = system: Staphylococcus aureus; set-up: method as in PMID 26927047; conditions: extracted from Chinese agarwood; cited from earlier work
[3] = Viability of Raji cells in the EBV-EA activation assay; assay type: cell-based; conditions: human, Raji cells; concentration 1000 mol ratio to TPA (32 pmol/ml); value in parentheses; read-out: viability percentage of Raji cells
From the text: (§1) We finally carried out in vitro functional analysis of the purified valerianol against tumor promoter activity, since there were no reports on its physiological functions. As such a screening study for anti-tumor promoters, valerianol and other several sesquiterpenes, β-eudesmol, elemol, α-selinene, and γ-amorphene, were examined for their inhibitory effects on induction of Epstein-Barr virus-early antigen (EBV-EA) activation in Raji cells by 12-O-tetradecanoylphorbol-13-acetate (TPA)[42].
(§2) This assay was carried out by the method described.

[4] = system: Epstein-Barr virus-early antigen (EBV-EA) activation in Raji cells by TPA; test: Inhibitory effects on induction of EBV-EA activation by TPA in Raji cells; assay type: cell-based
From the text: as §1, §2

[5] = system: Raji cells; test: Viability of Raji cells in the EBV-EA activation assay; assay type: cell-based; conditions: concentration 1000 mol ratio to TPA (32 pmol/ml); value in parentheses
From the text: as §1, §2

[6] = concentration 10 mol ratio to TPA (32 pmol/ml)
[7] = concentration 100 mol ratio to TPA (32 pmol/ml)
[8] = concentration 500 mol ratio to TPA (32 pmol/ml)
[9] = concentration 1000 mol ratio to TPA (32 pmol/ml)

Row | Compound | antibacterial activity against Ralstonia solanacearum (in words) [1] | antibacterial activity against Staphylococcus aureus (in words) [2] | viability at 32 nmol/ml [3] [%] | inhibitory activity on induction of EBV-EA activation by TPA (in words) [4] | EBV-EA activation, percentage relative to the positive control value (100%) [4, 6] [%] | EBV-EA activation, percentage relative to the positive control value (100%) [4, 7] [%] | EBV-EA activation, percentage relative to the positive control value (100%) [4, 8] [%] | EBV-EA activation, percentage relative to the positive control value (100%) [4, 9] [%] | viability percentage of Raji cells [5] [%]
1 | C[C@@H]1CCC=C2CC[C@@H](C(C)(C)O)C[C@]21C (relative stereo) [valerianol] | exhibited antibacterial activities | exhibited antibacterial activities | 60 | strongest inhibitory activity among the examined sesquiterpenes | 95.6 ± 0.6 | 70.0 ± 2.5 | 46.5 ± 1.5 | 2.1 | –
2 | C=CC1(C)CCC(C(C)(C)O)CC1C(=C)C (stereo not drawn) [elemol] | – | – | 70 | – | 100 ± 0.5 | 73.0 ± 2.4 | 52.6 ± 1.3 | 5.8 | –
3 | C=C(C)[C@@H]1CC[C@@]2(C)CCC=C(C)[C@@H]2C1 [α-selinene] | – | – | – | – | – | 74.4 ± 2.7 | 54.2 ± 1.5 | 7.3 | 60
4 | C=C1CCC[C@]2(C)CC[C@@H](C(C)(C)O)C[C@@H]12 [β-eudesmol] | – | – | 60 | – | 97.0 ± 0.5 | 71.1 ± 2.2 | 50.4 ± 1.6 | 3.6 | –
5 | C=C1CC[C@@H](C(C)C)[C@H]2C=C(C)CC[C@@H]12 [γ-amorphene] | – | – | – | – | 100 ± 0.4 | 76.1 ± 2.5 | 55.6 ± 1.7 | 8.1 | 60
